Like-named read-outs stand apart in the source and are kept apart here.
Legend:
[1] = target: T1, LD2 (Sus scrofa, UniProt P00336+P00339); assay: LDH activity assay with amphiphile, LDH isoenzymes; format: biochemical, porcine; settings: pH 7.4, read-out: LD2 activity remaining relative to buffer
T1 construct: porcine LDH, LD1, LD2, LD3, LD4 and LD5 in the form of ammonium sulfate suspensions
Protocol: (§1) 3. Beef heart LDH (Sigma Chemical Co., Type III), rabbit muscle LDH (Sigma Chemical Co., Type V) and porcine LDH, LD1, LD2, LD3, LD4 and LD5 in the form of ammonium sulfate suspensions were used for these examples.
(§2) The assay for LDH activity in both the absence and presence of surfactant was conducted as follows. […] The resulting solution contains approximately 5 units/ml. […] To the equilibrated solution […]. of the enzyme solution was added, and the cuvette was rapidly shaken while covering the top of the cuvette with a small piece of Parafilm® and placed back into the spectrophotometer.
(§3) Amphiphile solutions were prepared by weighing out a given amount of amphiphile, e.g., 100 mg, and preparing a stock solution in 30 mM sodium phosphate buffer in 100 ml. volumetric flask. Solutions of lower amphiphile concentration were prepared by making the appropriate dilutions from the stock solution.

[2] = target: T2, LD3 (Sus scrofa, UniProt P00336+P00339); assay: LDH activity assay with amphiphile, LDH isoenzymes; format: biochemical, porcine; settings: pH 7.4, read-out: LD3 activity remaining relative to buffer
T2 construct: porcine LDH, LD1, LD2, LD3, LD4 and LD5 in the form of ammonium sulfate suspensions
Protocol: as §1, §2, §3

[3] = target: T3, LD4 (Sus scrofa, UniProt P00336+P00339); assay: LDH activity assay with amphiphile, LDH isoenzymes; format: biochemical, porcine; settings: 7 mM DSS; FIG. 8
T3 construct: porcine LDH, LD1, LD2, LD3, LD4 and LD5 in the form of ammonium sulfate suspensions
Protocol: as §1, §2, §3

[4] = target: T4, LDH isoenzymes (LD5 in the presence of LD1) (Oryctolagus cuniculus, UniProt P13491); assay: Anionic amphiphiles tested for specific interaction with LDH isoenzymes (Table 2); format: biochemical
T4 construct: LD1 (LDHB tetramer) only as comparison
Protocol: as §2, §3
A number of anionic amphiphiles were investigated for specific inactivation of LD5 in the presence of LD1 and these compounds are listed in Table 2.

[5] = target: T5, human LD1 (Homo sapiens, UniProt P07195); assay: LDH assay with human enzyme-containing serum; format: biochemical; settings: 0.1 M DSS; pH 7.8; 14% protein
T5 construct: A specific human LDH isoenzyme (obtained from liver homogenate or red blood cell); from tissue; host or cells: human liver homogenate or red blood cell
Protocol: as §2
(§4) Pooled human serum, kept frozen until ready for use, was raised to pH 11.5 until all LDH activity was destroyed. The pH was then adjusted to 7.4 and the serum was again assayed for LDH activity to ensure that no LDH had been reactivated. A specific human LDH isoenzyme (obtained from liver homogenate or red blood cell) was then added to the pool to give an enzyme concentration of ~100 U/l. The spiked serum samples were refrigerated between uses and respiked when necessary. Fresh serum was prepared weekly.
(§5) 8. The assay method used is the same as described above for Examples 1-12, except that the test samples consisted of 25-30 μl of serum instead of 100 μl of aqueous enzyme solution.

[6] = target: T6, human LD2 (Homo sapiens, UniProt P00338+P07195); assay: LDH assay with human enzyme-containing serum; format: biochemical; settings: 0.1 M DSS; pH 7.8; 14% protein
T6 construct: A specific human LDH isoenzyme (obtained from liver homogenate or red blood cell); from tissue; host or cells: human liver homogenate or red blood cell
Protocol: as §2, §4, §5

[7] = target: T7, human LD3 (Homo sapiens, UniProt P00338+P07195); assay: LDH assay with human enzyme-containing serum; format: biochemical; settings: 0.1 M DSS; pH 7.8; 14% protein
T7 construct: A specific human LDH isoenzyme (obtained from liver homogenate or red blood cell); from tissue; host or cells: human liver homogenate or red blood cell
Protocol: as §2, §4, §5

[8] = target: T8, human LD4 (Homo sapiens, UniProt P00338+P07195); assay: LDH assay with human enzyme-containing serum; format: biochemical; settings: 0.1 M DSS; pH 7.8; 14% protein
T8 construct: A specific human LDH isoenzyme (obtained from liver homogenate or red blood cell); from tissue; host or cells: human liver homogenate or red blood cell
Protocol: as §2, §4, §5

[9] = target: T9, human LD5 (Homo sapiens, UniProt P00338); assay: LDH assay with human enzyme-containing serum; format: biochemical; settings: 0.1 M DSS; pH 7.8; 14% protein
T9 construct: A specific human LDH isoenzyme (obtained from liver homogenate or red blood cell); from tissue; host or cells: human liver homogenate or red blood cell
Protocol: as §2, §4, §5

[10] = target: LD1 (Sus scrofa, UniProt P00336); assay: LDH isoenzyme assay using a multilayer element; format: biochemical, porcine; design: purified porcine LDH isoenzymes; settings: web with DSS 0.54 g/m^2 in the spreading-reagent layer; control web 11
Protocol: (§6) Analytical elements containing all of the reagents necessary to quantitate specific isoenzymes were prepared according to the following format:
(§7) A polycarbonate-subbed Lexan® support was coated with a reagent layer comprising agarose (2.7 g/m^2) and NADH (0.12 g/m^2) in 0.1 M Tris buffer at pH 7.4, and a spreading-reagent layer comprising Avicel® (43 g/m^2), sodium pyruvate (0.5 g/m^2), polyvinyl pyrrolidone (PVP) (2.15 g/m^2) in isopropyl alcohol, and sodium decylsulfate (DSS) (0.54 g/m^2).
(§8) Control webs were coated as above except no sodium decylsulfate was added to the spreading-reagent layer.
(§9) Two aqueous solutions of purified porcine LDH isoenzymes, one containing LD1 and the other LD5, were prepared in 0.01 M Tris buffer, pH 7.4, at approximately 90 mU/ml. Sample aliquots (10 μl) of each solution and a buffer control (0.01 M Tris) were spotted onto the webs which were then monitored in a POS unit for decreasing fluorescence of the NADH with respect to time at 340 nm.

[11] = target: T10, LD5 (Sus scrofa, UniProt P00339); assay: LDH isoenzyme assay using a multilayer element; format: biochemical, porcine; design: purified porcine LDH isoenzymes; settings: web with DSS 0.54 g/m^2 in the spreading-reagent layer; control web 13
Protocol: as §6, §7, §8, §9

[12] = system: LD1 and LD5; assay: Screening of amphiphiles for ability to discriminate between LD1 and LD5
Protocol: A series of solutions was prepared covering a range of concentrations for each amphiphile to be tested. The activities of both LD1 and LD5 were determined in the presence of the various concentrations of each amphiphile and compared with enzyme activities in buffer (relative activity).
Enzyme activity in the presence and absence of amphiphile was measured by the following procedure: Stock solutions of NADH (4 mM) and pyruvate (40 mM) were prepared daily in 30 mM sodium phosphate buffer, pH 7.4. Enzyme solutions were prepared daily by withdrawing 5 μl of the stock enzyme solutions with a Hamilton syringe and diluting to 5 ml with 30 mM sodium phosphate buffer. (The resulting solution contains approximately 5 U of enzyme/ml.) The enzyme assay was run by pipetting 2.7 ml of buffer or buffer surfactant solution into a 10 mm path length quartz cuvette, and 100 μl each of NADH and pyruvate stock solutions were added. […] Enzyme solution was added with good mixing; the absorbance decrease at 340 nm was measured as a function of time. The rate of the reaction was determined by measuring the slope of the initial absorbance decrease, i.e., within the first 50 seconds of the reaction.

[13] = target: T10, LD5; assay: LDH activity assay with amphiphile, LDH isoenzymes; format: biochemical, porcine; design: LD5 from two different species, i.e., rabbit muscle and hog muscle; from tissue; host or cells: hog muscle; settings: 7 mM DSS; FIG. 8
Protocol: as §1, §2, §3

CCCCCCCCCCOS(=O)(=O)[O-].[Na+] [DSS, sodium decylsulfate]
remaining activity at 7000 µM [1]: ~60% | remaining activity at 7000 µM [2]: ~30% | LD4 activity relative to buffer [3]: all the LD5 and LD4 activity is destroyed | Interaction (specific inactivation of LD5 in the presence of LD1) [4]: useful positive results | Interaction (specific inactivation of LD5 in the presence of LD1) ([4]; listed as sodium decylsulfate): specific | human LD1 activity [5]: fully active | human LD2 activity [6]: completely deactivated | human LD3 activity [7]: completely deactivated | human LD4 activity [8]: completely deactivated | human LD5 activity [9]: completely deactivated | Isoenzyme Activity LD1 [10]: 15 | Isoenzyme Activity LD5 [11]: 0 | discrimination of LDH isoenzymes [12]: excellent discriminators | Effectiveness (LDH isoenzyme inhibition specificity, LD1 vs LD5) ([12]; range of amphiphile concentrations, relative activity vs buffer): ++ | LD5 activity relative to buffer [13]: all the LD5 and LD4 activity is destroyed
